Legend:
S. epidermidis [1] = assay: Comparison of diol compounds, growth of beneficial bacteria; format: cell-based, Staphylococcus epidermidis; set-up: key to Effect on the growth of beneficial bacteria (S. epidermidis): ++: Growth promotion; +: No effect; −: Growth inhibition; − −: 50% or more growth inhibition
From the text: (§1) FIG. 4 illustrates the results of a comparative analysis of the effects of diol compounds, specifically 1,3-propanediol, 2-methyl-1,3-propanediol, 1,3-butanediol, 2,3-butanediol, 1,2-pentanediol, and 1,2-hexanediol on the growth of harmful bacteria (upper graph) and beneficial bacteria (lower graph). FIG. 4A: 1,3-propanediol, FIG. 4B: 2-methyl-1,3-propanediol; FIG. 4C: 1,3-butanediol; FIG. 4D: 2,3-butanediol; FIG. 4E: 1,2-pentanediol; FIG. 4F: 1,2-Hexanediol.
(§2) • 1) Staphylococcus epidermidis ATCC 12228 and Staphylococcus aureus ATCC 6538 strains were obtained from ThermoFisher Scientific and cultured in tryptic soy broth (culture conditions: 32° C. for 18 hours). After culturing, they were diluted with 0.85% NaCl to adjust the absorbance (600 nm) to 0.5-0.6. • 2) 1,3-propanediol was obtained from Sigma-Aldrich. • 3) 2-methyl-1,3-propanediol, 1,3-butanediol, 2,3-butanediol, 1,2-pentanediol, and 1,2-hexanediol were all obtained from Sigma-Aldrich. • 4) Fructan was obtained from Sigma-Aldrich. • 5) Yeast extract was obtained from Sigma-Aldrich.

[2] = test system: Staphylococcus epidermidis ATCC 12228; assay: Combination of 1,3-propanediol and fructan, growth of beneficial bacteria; format: cell-based; details: 1,3-propanediol 1.5 wt %; fructan 0.00 wt %
Method: as §2
(§3) In order to evaluate the effect of 1,3-propanediol and fructan on the skin microbiome, the effect on the growth rate of Staphylococcus epidermidis ATCC 12228, a representative beneficial skin bacterium, and Staphylococcus aureus ATCC 6538, a harmful skin bacterium, was confirmed. Staphylococcus epidermidis ATCC 12228 and Staphylococcus aureus ATCC 6538 were cultured in tryptic soy broth at 32° C. for 18 hours or more, then diluted with 0.85% NaCl and adjusted to have an absorbance (600 nm) of 0.5 to 0.6.
(§4) S. epidermidis and S. aureus prepared above were inoculated to achieve a concentration of 1% (v/v) in 10% tryptic soy broth to which 1,3-propanediol was added at a fixed concentration of 1.5 wt % and fructan was added at each concentration in the table below. […]

S. aureus [3] = assay: Combination of 1,3-propanediol and yeast extract, growth of harmful bacteria; format: cell-based, Staphylococcus aureus; details: 1,3-propanediol 1.5 wt %; yeast extract 0.00 wt %
Method: as §2, §3, §4

[4] = test system: Staphylococcus aureus ATCC 6538; assay: Growth of harmful skin bacteria, single culture with 1,3-propanediol (absorbance 600 nm); format: cell-based; details: for Effect on the growth of harmful bacteria (S. aureus): absorbance 600 nm, 2 to 16 hours vs control
Method: as §2
The effect of 1,3-propanediol on the growth of Staphylococcus aureus ATCC 6538 was analyzed.
(§5) For this purpose, 1,3-propanediol was diluted with 10% tryptic soy broth to prepare concentrations of 0.05, 0.1, 0.2, 0.5, 1.0, 3.0, 5.0, 10, 20, and 25 wt %.
After adding 1,3-propanediol prepared at each concentration to 10% tryptic soy broth, S. aureus was inoculated to achieve a concentration of 1% (v/v).
(§6) Afterwards, the cells were cultured at a temperature of 32° C. for 24 hours, and the absorbance (600 nm) was measured at 2-hour intervals to analyze the growth of beneficial skin bacteria.
(§7) At this time, 10% tryptic soy broth to which 1,3-propanediol was not added was set as a control group.
The criteria for determining the effect on the growth of harmful bacteria were as follows: when the absorbance (600 nm) was measured while culturing for 2 to 16 hours after inoculation of S. aureus, if the absorbance was lower than that of 10% tryptic soy broth (control group) to which 1,3-propanediol was not added, it was determined that the growth of S. aureus was inhibited. If there was no difference in absorbance, it was determined that there was no effect.

[5] = test system: Staphylococcus epidermidis ATCC 12228; assay: Growth of beneficial skin bacteria, single culture with 1,3-propanediol (absorbance 600 nm); format: cell-based; details: for Effect on the growth of beneficial bacteria (S. epidermidis): absorbance 600 nm, 2 to 16 hours vs control
Method: as §2
The effect of 1,3-propanediol on the growth of Staphylococcus epidermidis ATCC 12228 was analyzed.
as §5
After adding the prepared 1,3-propanediol at each concentration to 10% tryptic soy broth, S. epidermidis was inoculated to achieve a concentration of 1% (v/v).
as §6, §7
The criteria for determining the effect on the growth of beneficial bacteria were as follows: when the absorbance (600 nm) was measured while culturing for 2 to 16 hours after inoculation of S. epidermidis, if the absorbance was higher than that of 10% tryptic soy broth (control group) to which 1,3-propanediol was not added, it was determined that the growth of S. epidermidis was promoted. If there was no difference, it was determined that there was no effect, and if the absorbance was lower, it was determined that there was inhibition. […] As a result, it can be seen that when the concentration of 1,3-propanediol is in a specific range exceeding 0.05 wt % and less than 20 wt %, it promotes the growth of S. epidermidis.

[6] = test system: Staphylococcus aureus ATCC 6538; assay: Combination of 1,3-propanediol and fructan, growth of harmful bacteria; format: cell-based; details: 1,3-propanediol 1.5 wt %; fructan 0.00 wt %
Method: as §2, §3, §4

S. aureus [7] = assay: Comparison of diol compounds, growth of harmful bacteria; format: cell-based, Staphylococcus aureus
From the text: as §1, §2

S. epidermidis [8] = assay: Combination of 1,3-propanediol and yeast extract, growth of beneficial bacteria; format: cell-based, Staphylococcus epidermidis; details: 1,3-propanediol 1.5 wt %; yeast extract 0.00 wt %
[9] = when the concentration increases

`OCCCO` [1,3-propanediol] was tested, and the “Effect on the growth of beneficial bacteria (S. epidermidis)” value (“Effect on the growth … (S. epidermidis)” below) (S. epidermidis [1]; diol compound 0.1 wt %) was “++”, the “Effect on the growth … (S. epidermidis)” value (S. epidermidis [1]; diol compound 1 wt %) was “++” and the “Effect on the growth … (S. epidermidis)” value (S. epidermidis [1]; diol compound 5 wt %) was “+”. The “Effect on the growth … (S. epidermidis)” value (S. epidermidis [1]; diol compound 10 wt %) was “+”, the “Effect on the growth … (S. epidermidis)” value (S. epidermidis [1]; diol compound 20 wt %) was “+” and the “Growth of beneficial bacteria (summary)” value (S. epidermidis [1]; [9]) was “the growth of beneficial bacteria is promoted”. For the same compound, the “Effect on the growth … (S. epidermidis)” value [2] was “+ (Mild growth promotion (change in absorbance (increase) 3%))”, the “Effect on the growth of harmful bacteria (S. aureus)” value (“Effect on the growth … (S. aureus)” for short) (S. aureus [3]) was “++ (Significant growth inhibition (change in absorbance (decrease) 5%))” and the “Effect on the growth … (S. aureus)” value ([4]; 0.05 wt %) was “No effect”. For the same compound, the “Effect on the growth … (S. aureus)” value ([4]; 0.1 wt %) was “No effect”, the “Effect on the growth … (S. aureus)” value ([4]; 0.2 wt %) was “No effect” and the “Effect on the growth … (S. aureus)” value ([4]; 0.5 wt %) was “No effect”. The “Effect on the growth … (S. aureus)” value ([4]; 1.0 wt %) was “No effect”, the “Effect on the growth … (S. aureus)” value ([4]; 3.0 wt %) was “Inhibited” and the “Effect on the growth … (S. aureus)” value ([4]; 5.0 wt %) was “Inhibited”. The “Effect on the growth … (S. aureus)” value ([4]; 10 wt %) was “Inhibited”, the “Effect on the growth … (S. aureus)” value ([4]; 20 wt %) was “Inhibited” and the “Effect on the growth … (S. aureus)” value ([4]; 25 wt %) was “Inhibited”. The “Concentration that did not inhibit the growth of S. aureus” value ([4]; single culture) was no more than 1.0 wt %, the “Effect on the growth … (S. epidermidis)” value ([5]; 0.05 wt %) was “No effect” and the “Effect on the growth … (S. epidermidis)” value ([5]; 0.1 wt %) was “Promoted”. The “Effect on the growth … (S. epidermidis)” value ([5]; 0.2 wt %) was “Promoted”, the “Effect on the growth … (S. epidermidis)” value ([5]; 0.5 wt %) was “Promoted” and the “Effect on the growth … (S. epidermidis)” value ([5]; 1.0 wt %) was “Promoted”. For the same compound, the “Effect on the growth … (S. epidermidis)” value ([5]; 3.0 wt %) was “Promoted”, the “Effect on the growth … (S. epidermidis)” value ([5]; 5.0 wt %) was “Promoted” and the “Effect on the growth … (S. epidermidis)” value ([5]; 10 wt %) was “Promoted”. For the same compound, the “Effect on the growth … (S. epidermidis)” value ([5]; 20 wt %) was “No effect”, the “Effect on the growth … (S. epidermidis)” value ([5]; 25 wt %) was “Inhibited” and the “Concentration that inhibited the growth of S. epidermidis” value ([5]; single culture) was “exceeded 25 wt %”. The “Effect on the growth … (S. aureus)” value [6] was “++ (Significant growth inhibition (change in absorbance (decrease) 5%))”, the “Effect on the growth … (S. aureus)” value (S. aureus [7]; diol compound 0.1 wt %) was “++” and the “Effect on the growth … (S. aureus)” value (S. aureus [7]; diol compound 1 wt %) was “++”. For the same compound, the “Effect on the growth … (S. aureus)” value (S. aureus [7]; diol compound 5 wt %) was “+++ (50% or more inhibition)”, the “Effect on the growth … (S. aureus)” value (S. aureus [7]; diol compound 10 wt %) was “+++ (50% or more inhibition)” and the “Effect on the growth … (S. aureus)” value (S. aureus [7]; diol compound 20 wt %) was “+++ (50% or more inhibition)”. For the same compound, the “Growth of harmful bacteria (summary)” value (S. aureus [7]; [9]) was “the growth of harmful bacteria is inhibited” and the “Effect on the growth … (S. epidermidis)” value (S. epidermidis [8]) was “+ (Mild growth promotion (change in absorbance (increase) 3%))”.

Reference: patent US20260325417A1, “TOPICAL SKIN COMPOSITION CONTAINING 1,3-PROPANEDIOL AS ACTIVE INGREDIENT FOR MAINTAINING MICROBIOME BALANCE IN SKIN” (ACTIVON CO.,LTD., priority 2022, published 2026)
